Test results from paper PMC5697638, “Identification of a Potent Phosphoinositide 3‐Kinase Pan Inhibitor Displaying a Strategic Carboxylic Acid Group and Development of Its Prodrugs” (Chemmedchem, 2017).

Assays:
Type in all cases: biochemical
[1] = molecular target: T1, human PI3Kα (PIK3CA/PIK3R1) (Homo sapiens, UniProt P42336); test: lipid kinase assay (ADP-Glo), PI3Kα; conditions: for inhibition at 1 µM: determined at 1 μM, at least triplicate, read-out: Inhibitory activity, PI3K isoform α
T1 construct: purchased ProQinase, Germany 1161‐1165‐1
T1 sequence (P42336 whole entry, canonical isoform): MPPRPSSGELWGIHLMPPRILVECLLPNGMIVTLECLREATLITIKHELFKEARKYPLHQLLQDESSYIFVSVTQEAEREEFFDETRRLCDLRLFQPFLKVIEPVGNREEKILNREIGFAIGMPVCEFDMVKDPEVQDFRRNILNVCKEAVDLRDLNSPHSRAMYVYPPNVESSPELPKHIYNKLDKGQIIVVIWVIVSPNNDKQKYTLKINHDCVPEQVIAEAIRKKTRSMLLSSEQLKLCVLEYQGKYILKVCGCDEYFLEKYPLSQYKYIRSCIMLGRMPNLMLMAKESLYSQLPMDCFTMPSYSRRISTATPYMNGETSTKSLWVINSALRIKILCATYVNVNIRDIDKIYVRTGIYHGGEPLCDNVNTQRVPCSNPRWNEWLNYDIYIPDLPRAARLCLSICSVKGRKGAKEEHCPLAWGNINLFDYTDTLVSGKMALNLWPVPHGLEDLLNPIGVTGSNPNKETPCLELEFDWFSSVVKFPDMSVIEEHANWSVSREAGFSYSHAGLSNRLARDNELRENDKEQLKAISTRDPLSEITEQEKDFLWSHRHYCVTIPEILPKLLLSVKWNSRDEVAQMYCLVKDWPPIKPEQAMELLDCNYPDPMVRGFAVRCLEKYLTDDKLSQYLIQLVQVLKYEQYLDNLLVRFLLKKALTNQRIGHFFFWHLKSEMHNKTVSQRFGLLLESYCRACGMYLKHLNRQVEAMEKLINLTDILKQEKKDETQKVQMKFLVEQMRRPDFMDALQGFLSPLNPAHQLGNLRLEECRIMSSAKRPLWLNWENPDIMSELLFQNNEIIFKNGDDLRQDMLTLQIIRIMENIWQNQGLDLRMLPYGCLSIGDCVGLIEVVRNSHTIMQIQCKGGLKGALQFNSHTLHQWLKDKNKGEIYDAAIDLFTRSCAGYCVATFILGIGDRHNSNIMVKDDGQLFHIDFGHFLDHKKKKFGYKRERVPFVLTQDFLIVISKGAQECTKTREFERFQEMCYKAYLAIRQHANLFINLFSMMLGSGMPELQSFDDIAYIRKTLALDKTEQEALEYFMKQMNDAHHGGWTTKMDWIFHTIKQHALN
T1 sequence (P27986 whole entry partner, canonical isoform): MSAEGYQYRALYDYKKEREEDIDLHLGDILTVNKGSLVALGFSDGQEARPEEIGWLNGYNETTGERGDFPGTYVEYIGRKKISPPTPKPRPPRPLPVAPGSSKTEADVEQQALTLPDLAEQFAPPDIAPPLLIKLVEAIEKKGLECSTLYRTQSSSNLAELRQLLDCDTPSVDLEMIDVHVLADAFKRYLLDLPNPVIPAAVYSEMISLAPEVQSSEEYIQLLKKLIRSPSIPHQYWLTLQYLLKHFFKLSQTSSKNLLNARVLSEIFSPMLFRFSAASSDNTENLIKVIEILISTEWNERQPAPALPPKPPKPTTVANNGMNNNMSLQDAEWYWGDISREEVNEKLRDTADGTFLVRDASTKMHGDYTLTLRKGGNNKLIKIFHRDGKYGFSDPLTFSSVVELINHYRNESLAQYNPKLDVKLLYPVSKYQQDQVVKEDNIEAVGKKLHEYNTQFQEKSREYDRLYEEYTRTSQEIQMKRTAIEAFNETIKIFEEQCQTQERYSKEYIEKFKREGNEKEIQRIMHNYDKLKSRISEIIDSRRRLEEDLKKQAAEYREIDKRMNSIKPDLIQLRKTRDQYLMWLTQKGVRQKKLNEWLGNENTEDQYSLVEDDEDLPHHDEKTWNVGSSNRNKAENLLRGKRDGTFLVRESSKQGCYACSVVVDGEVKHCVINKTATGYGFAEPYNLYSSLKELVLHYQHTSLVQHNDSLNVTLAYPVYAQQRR
Protocol: (§1) In vitro selection, lipid kinase assay: To determine the inhibitory activity of the new molecular entities on PI3K enzyme, a lipid kinase assay was performed: recombinant proteins (30 ng), human PI3Kα (PIK3CA/PIK3R1, #1161‐1165‐1 ProQinase–Germany), hPI3Kβ (PIK3CB wt/PIK3R1, #1168‐1165‐1 ProQinase, Germany), hPI3Kγ (PIK3CG, #1163‐0000‐1 ProQinase, Germany), hPI3Kδ (PIK3CD/PIK3R1, #1162–1165‐1 ProQinase, Germany), hPI3K‐C2α (PIK3C2A, #14‐906 Merck Millipore_Merck KGaA, Germany), hPI3K‐C2β (PIK3C2B, #14‐907 Merck Millipore_Merck KGaA, Germany), hPI3K‐c2γ (PIK3C2G, #1207‐0000‐1 ProQinase, Germany), and hVps34 (PIK3C3, #1160‐0000‐1 ProQinase, Germany), were incubated in kinase buffer {12.5 μL; 20 mM Tris‐HCl pH 7.5, 10 mM MgCl2, 10 μM ATP, 0.05 mg mL^−1 BSA, 0.5 mM EDTA, 5 mM HEPES pH 7.5, for PI3Kα,PI3Kβ, PI3Kγ, PI3Kδ, PI3KC‐2α, and PI3KC‐2γ; 15 mM MnCl2, 5 mM EGTA, 100 μM ATP, 50 mM HEPES pH 7.5, 100 mM NaCl, and 0.03 % CHAPS for PI3K‐C2β and VPS34 {BSA=bovine serum albumin; EDTA=ethylenediaminetetraacetic acid; HEPES=4‐(2‐hydroxyethyl)‐1‐piperazineethanesulfonic acid; EGTA=ethylene glycol‐bis(2‐aminoethylether)‐N,N,N′,N′‐tetraacetic acid; CHAPS=3‐[(3‐cholamidopropyl)dimethylammonio]‐1‐propanesulfonate}. In the reaction, the ATP concentration used for different PI3Ks was defined on the basis of the Michaelis–Menten kinetics of each enzyme, provided by the supplier. Reaction was performed in presence of 0.5 mg mL^−1 lipid micelles (1:1 phosphatidylinositol/phosphatidylserine) and in the absence (DMSO alone) or presence of increasing concentrations of each compound (from 0.1 nM to 30 μM). The mixture was kept at room temperature (RT) for 30 min for PI3Kα, PI3Kβ, PI3Kγ, PI3Kδ, PI3KC‐2α, and PI3KC‐2γ and for 1 h for PI3K‐C2β and PI3K‐C3. The amount of ADP produced in the reaction was measured by using the ADP‐Glo Kinase Assay kit from Promega (#V9102) and a luminescence reader (Glomax multi detection system, Promega, model number 9301‐010).
(§2) The residual PI3K lipid kinase activity in the presence of each molecule at different concentrations was related to the control, intended as the recombinant protein in the presence of DMSO alone and was expressed as a percentage. To derive the IC50 value, all data (% of lipid kinase activity) were plotted on a dose–response curve (Graph Pad software), and the IC50 was calculated by using nonlinear regression fit (equation [log agonist] versus response).

[2] = molecular target: T2, hPI3Kβ (PIK3CB wt/PIK3R1) (Homo sapiens, UniProt P42338); test: lipid kinase assay (ADP-Glo), PI3Kβ; conditions: for inhibition at 1 µM: determined at 1 μM, at least triplicate, read-out: Inhibitory activity, PI3K isoform β
T2 construct: purchased ProQinase, Germany 1168‐1165‐1
T2 sequence (P42338 whole entry, canonical isoform): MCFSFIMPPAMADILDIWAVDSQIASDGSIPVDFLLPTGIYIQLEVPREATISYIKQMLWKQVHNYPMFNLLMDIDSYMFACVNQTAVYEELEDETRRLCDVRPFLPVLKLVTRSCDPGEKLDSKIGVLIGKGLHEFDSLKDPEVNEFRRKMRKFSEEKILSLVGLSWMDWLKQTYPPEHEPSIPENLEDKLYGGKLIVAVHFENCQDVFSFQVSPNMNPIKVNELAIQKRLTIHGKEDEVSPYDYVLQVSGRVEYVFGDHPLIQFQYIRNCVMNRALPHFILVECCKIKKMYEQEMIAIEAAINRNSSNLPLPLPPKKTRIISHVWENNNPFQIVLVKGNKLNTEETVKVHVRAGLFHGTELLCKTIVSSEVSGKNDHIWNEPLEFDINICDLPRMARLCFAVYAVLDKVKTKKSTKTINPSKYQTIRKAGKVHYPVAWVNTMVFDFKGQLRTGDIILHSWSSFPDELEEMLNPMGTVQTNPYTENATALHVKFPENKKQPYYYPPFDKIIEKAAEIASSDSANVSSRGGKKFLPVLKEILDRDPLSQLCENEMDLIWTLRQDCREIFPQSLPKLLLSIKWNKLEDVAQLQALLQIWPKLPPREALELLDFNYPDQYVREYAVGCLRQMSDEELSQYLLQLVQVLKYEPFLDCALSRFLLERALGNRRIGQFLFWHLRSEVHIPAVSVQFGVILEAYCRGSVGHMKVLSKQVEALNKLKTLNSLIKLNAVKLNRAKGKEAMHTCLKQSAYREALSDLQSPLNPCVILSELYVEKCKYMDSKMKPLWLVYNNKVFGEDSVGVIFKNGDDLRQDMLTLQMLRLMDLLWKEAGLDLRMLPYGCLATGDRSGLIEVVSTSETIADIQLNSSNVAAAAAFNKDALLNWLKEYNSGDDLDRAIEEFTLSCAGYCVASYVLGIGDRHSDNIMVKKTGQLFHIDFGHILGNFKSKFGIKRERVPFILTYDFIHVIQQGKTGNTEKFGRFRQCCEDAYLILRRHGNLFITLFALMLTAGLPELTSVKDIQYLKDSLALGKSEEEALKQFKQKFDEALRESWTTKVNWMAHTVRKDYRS
T2 sequence (P27986 whole entry partner, canonical isoform): as the sequence (P27986 whole entry partner, canonical isoform) above
Protocol: as §1, §2

hPI3Kγ (PIK3CG) = molecular target: T3, hPI3Kγ (PIK3CG) (Homo sapiens, UniProt P48736); test: lipid kinase assay (ADP-Glo), PI3Kγ; conditions: for inhibition at 1 µM: determined at 1 μM, at least triplicate, read-out: Inhibitory activity, PI3K isoform γ
T3 construct: purchased ProQinase, Germany 1163‐0000‐1
T3 sequence (P48736 whole entry, canonical isoform): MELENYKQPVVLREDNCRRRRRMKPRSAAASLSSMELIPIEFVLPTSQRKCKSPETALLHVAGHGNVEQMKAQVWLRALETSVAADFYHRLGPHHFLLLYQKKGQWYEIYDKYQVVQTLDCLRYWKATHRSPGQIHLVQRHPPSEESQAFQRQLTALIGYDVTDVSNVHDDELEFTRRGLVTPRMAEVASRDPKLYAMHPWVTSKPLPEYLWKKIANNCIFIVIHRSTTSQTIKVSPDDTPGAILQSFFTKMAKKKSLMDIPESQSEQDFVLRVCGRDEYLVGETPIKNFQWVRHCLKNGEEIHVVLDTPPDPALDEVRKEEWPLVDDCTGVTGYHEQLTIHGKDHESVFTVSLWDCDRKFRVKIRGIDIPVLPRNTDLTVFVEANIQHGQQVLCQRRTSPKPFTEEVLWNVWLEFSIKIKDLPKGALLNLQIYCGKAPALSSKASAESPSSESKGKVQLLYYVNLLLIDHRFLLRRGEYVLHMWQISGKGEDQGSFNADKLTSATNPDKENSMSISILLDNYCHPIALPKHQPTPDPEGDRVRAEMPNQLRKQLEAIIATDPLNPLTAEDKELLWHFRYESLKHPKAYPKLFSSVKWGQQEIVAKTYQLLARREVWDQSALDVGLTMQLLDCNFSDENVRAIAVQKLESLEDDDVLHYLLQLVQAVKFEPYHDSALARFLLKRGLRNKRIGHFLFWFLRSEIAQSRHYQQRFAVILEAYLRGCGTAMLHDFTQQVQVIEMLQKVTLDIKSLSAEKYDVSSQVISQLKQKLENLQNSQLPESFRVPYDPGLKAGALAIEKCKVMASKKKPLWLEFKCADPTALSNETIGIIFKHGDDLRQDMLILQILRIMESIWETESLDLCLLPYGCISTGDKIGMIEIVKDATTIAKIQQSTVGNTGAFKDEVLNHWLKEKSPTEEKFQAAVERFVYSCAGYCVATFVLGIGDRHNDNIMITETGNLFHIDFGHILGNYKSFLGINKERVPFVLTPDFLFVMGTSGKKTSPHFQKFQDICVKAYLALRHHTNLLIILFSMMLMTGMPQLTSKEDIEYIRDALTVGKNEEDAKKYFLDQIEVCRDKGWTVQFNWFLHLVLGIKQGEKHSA
Protocol: as §1, §2

hPI3Kδ (PIK3CD/PIK3R1) = molecular target: T4, hPI3Kδ (PIK3CD/PIK3R1) (Homo sapiens, UniProt O00329); test: lipid kinase assay (ADP-Glo), PI3Kδ; conditions: for inhibition at 1 µM: determined at 1 μM, at least triplicate, read-out: Inhibitory activity, PI3K isoform δ
T4 construct: purchased ProQinase, Germany 1162–1165‐1
T4 sequence (O00329 whole entry, canonical isoform): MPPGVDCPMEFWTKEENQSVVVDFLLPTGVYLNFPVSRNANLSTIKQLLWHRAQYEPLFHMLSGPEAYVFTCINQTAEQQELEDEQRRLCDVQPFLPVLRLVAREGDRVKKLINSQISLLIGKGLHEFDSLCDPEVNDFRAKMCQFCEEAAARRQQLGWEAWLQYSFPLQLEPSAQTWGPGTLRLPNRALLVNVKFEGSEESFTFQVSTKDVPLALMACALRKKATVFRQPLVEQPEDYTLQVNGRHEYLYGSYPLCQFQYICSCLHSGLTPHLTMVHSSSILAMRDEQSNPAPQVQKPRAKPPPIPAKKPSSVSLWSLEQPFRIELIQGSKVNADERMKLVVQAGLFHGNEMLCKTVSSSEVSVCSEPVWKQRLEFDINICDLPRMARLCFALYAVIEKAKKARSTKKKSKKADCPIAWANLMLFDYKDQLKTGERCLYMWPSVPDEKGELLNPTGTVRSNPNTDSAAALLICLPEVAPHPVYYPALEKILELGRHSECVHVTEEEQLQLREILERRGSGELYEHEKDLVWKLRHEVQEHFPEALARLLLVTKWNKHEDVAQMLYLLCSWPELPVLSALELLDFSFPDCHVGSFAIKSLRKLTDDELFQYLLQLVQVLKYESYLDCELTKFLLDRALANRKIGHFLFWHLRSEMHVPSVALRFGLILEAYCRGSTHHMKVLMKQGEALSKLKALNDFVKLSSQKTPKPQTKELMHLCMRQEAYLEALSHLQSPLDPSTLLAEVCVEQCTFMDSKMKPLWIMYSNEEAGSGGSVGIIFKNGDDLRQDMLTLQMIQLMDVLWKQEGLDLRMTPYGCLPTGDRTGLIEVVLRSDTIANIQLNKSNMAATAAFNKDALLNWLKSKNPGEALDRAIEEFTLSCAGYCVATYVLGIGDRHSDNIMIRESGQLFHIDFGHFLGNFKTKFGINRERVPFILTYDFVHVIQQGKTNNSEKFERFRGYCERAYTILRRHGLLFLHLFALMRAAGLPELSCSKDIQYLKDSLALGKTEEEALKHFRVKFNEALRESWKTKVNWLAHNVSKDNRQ
T4 sequence (P27986 whole entry partner, canonical isoform): as the sequence (P27986 whole entry partner, canonical isoform) above
Protocol: as §1, §2

[3] = Table 2, mean of at least three determinations, 95 % confidence intervals

Row | SMILES | inhibition at 1 µM [1] [%] | inhibition at 1 µM [2] [%] | inhibition at 1 µM (hPI3Kγ (PIK3CG)) [%] | inhibition at 1 µM (hPI3Kδ (PIK3CD/PIK3R1)) [%] | IC50 ([1]; Table 2, mean of at least three determinations, 95 % confidence intervals, read-out: IC50 PI3Kα) [nM] | IC50 [2, 3] [nM] | IC50 (hPI3Kγ (PIK3CG); [3]) [nM] | IC50 (hPI3Kδ (PIK3CD/PIK3R1); [3]) [nM]
1 | COc1ccc(NC(C)=O)cc1-n1cc(-c2cccc3c(=O)cc(N4CCOCC4)[nH]c23)nn1 [Compound 38, N ‐{4‐Methoxy‐3‐[4‐(2‐morpholino‐4‐oxo‐1,4‐dihydroquinolin‐8‐yl)‐1H‐1,2,3‐triazol‐1‐yl]phenyl}acetamide] | < 50 | < 50 | < 50 | < 50 | – | – | – | –
2 | COc1ccc(-n2cc(-c3cccc4c(=O)cc(N5CCOCC5)[nH]c34)nn2)cc1O [Compound 27, 8‐[1‐(3‐Hydroxy‐4‐methoxyphenyl)‐1H‐1,2,3‐triazol‐4‐yl]‐2‐morpholinoquinolin‐4(1H)‐one] | < 50 | < 50 | < 50 | < 50 | – | – | – | –
3 | COc1cccc(-n2cc(-c3cccc4c(=O)cc(N5CCOCC5)[nH]c34)nn2)c1 [Compound 35, 8‐[1‐(3‐Methoxyphenyl)‐1H‐1,2,3‐triazol‐4‐yl]‐2‐morpholinoquinolin‐4(1H)‐one] | < 50 | < 50 | < 50 | > 50 | 1300 ± 700 | 9300 ± 5800 | 4200 ± 2100 | 810 ± 360
4 | Cc1cc(O)ccc1-n1cc(-c2cccc3c(=O)cc(N4CCOCC4)[nH]c23)nn1 [Compound 40, 8‐[1‐(4‐Hydroxy‐2‐methylphenyl)‐1H‐1,2,3‐triazol‐4‐yl]‐2‐morpholinoquinolin‐4(1H)‐one] | < 50 | < 50 | < 50 | < 50 | – | – | – | –
5 | O=c1cc(N2CCOCC2)[nH]c2c(-c3cn(-c4ccc5ccccc5c4)nn3)cccc12 [Compound 34, 2‐Morpholino‐8‐[1‐(naphthalen‐2‐yl)‐1H‐1,2,3‐triazol‐4‐yl]quinolin‐4(1H)‐one] | < 50 | < 50 | < 50 | < 50 | – | – | – | –
6 | N#CCc1ccc(-n2cc(-c3cccc4c(=O)cc(N5CCOCC5)[nH]c34)nn2)cc1 [Compound 33, 2‐{4‐[4‐(2‐Morpholino‐4‐oxo‐1,4‐dihydroquinolin‐8‐yl)‐1H‐1,2,3‐triazol‐1‐yl]phenyl} acetonitrile] | < 50 | < 50 | < 50 | < 50 | – | – | – | –

The next lines start with the values.

Row | inhibition at 1 µM [1] [%] | inhibition at 1 µM [2] [%] | inhibition at 1 µM (hPI3Kγ (PIK3CG)) [%] | inhibition at 1 µM (hPI3Kδ (PIK3CD/PIK3R1)) [%] | IC50 ([1]; Table 2, mean of at least three determinations, 95 % confidence intervals, read-out: IC50 PI3Kα) [nM] | IC50 [2, 3] [nM] | IC50 (hPI3Kγ (PIK3CG); [3]) [nM] | IC50 (hPI3Kδ (PIK3CD/PIK3R1); [3]) [nM] | SMILES
7 | < 50 | < 50 | < 50 | < 50 | – | – | – | – | COC(=O)c1cccc(-n2cc(-c3cccc4c(=O)cc(N5CCOCC5)[nH]c34)nn2)c1 [Compound 49, Methyl 3‐[4‐(2‐morpholino‐4‐oxo‐1,4‐dihydroquinolin‐8‐yl)‐1H‐1,2,3‐triazol‐1‐yl]benzoate]
8 | < 50 | < 50 | < 50 | < 50 | – | – | – | – | O=c1cc(N2CCOCC2)[nH]c2c(-c3cn(-c4ccc5c(c4)OCO5)nn3)cccc12 [Compound 46, 8‐[1‐(Benzo[d][1,3]dioxol‐5‐yl)‐1H‐1,2,3‐triazol‐4‐yl]‐2‐morpholinoquinolin‐4(1H)‐one]
9 | < 50 | < 50 | < 50 | < 50 | – | – | – | – | O=c1cc(N2CCOCC2)[nH]c2c(-c3cn(-c4ccccc4CO)nn3)cccc12 [Compound 41, 8‐{1‐[2‐(Hydroxymethyl)phenyl]‐1H‐1,2,3‐triazol‐4‐yl}‐2‐morpholinoquinolin‐4(1H)‐one]
10 | < 50 | < 50 | < 50 | < 50 | – | – | – | – | COc1cc(OC)cc(-n2cc(-c3cccc4c(=O)cc(N5CCOCC5)[nH]c34)nn2)c1 [Compound 47, 8‐[1‐(3,5‐Dimethoxyphenyl)‐1H‐1,2,3‐triazol‐4‐yl]‐2‐morpholinoquinolin‐4(1H)‐one]
11 | < 50 | < 50 | < 50 | < 50 | – | – | – | – | NS(=O)(=O)c1ccc(-n2cc(-c3cccc4c(=O)cc(N5CCOCC5)[nH]c34)nn2)cc1 [Compound 50, 4‐[4‐(2‐Morpholino‐4‐oxo‐1,4‐dihydroquinolin‐8‐yl)‐1H‐1,2,3‐triazol‐1‐yl]benzenesulfonamide]
